Source: patent US20090137549A1, “Novel compounds useful for the treatment of degenerative & inflamatory diseases” (priority 2006, published 2009)

Biological target: PDE1A (Homo sapiens, UniProt P54750)
Test: PDE1A dose response, Cyclic Nucleotide Phosphodiesterase Assay Kit from Biomol (colorimetric)
Type: biochemical
Details: purified PDE1A enzyme, 100 μM cAMP
From the text: For the dose response and further screening, we used the Cyclic Nucleotide
Phosphodiesterase Assay Kit from Biomol, a colorimetric, non-radioactive assay. The basis for the assay is the cleavage of cAMP by PDE1A. The 5′AMP is further cleaved into the nucleoside and phosphate by the enzyme 5′-nucleotidase (catnr KI-307). The phosphate released due to enzymatic cleavage is quantified using BIOMOL GREEN™ reagent (catnr AK-111) in a modified Malachite Green assay^1,2. A PDE1A inhibitor will result in a decrease of the signal.
For the enzymatic reaction a mix of 25 μL with purified PDE1A enzyme, 100 μM cAMP, 5′Nucleotidase and the compound is made in a clear 384-plate. The reaction buffer is Tris 20 mM pH 7.4, 4 μg/mL calmodulin, 3 mM MgCl2, 1.5 mM CaCl2, 0.2 mg/mL BSA and 0.001% Brij-35. After an incubation of 45 minutes at 37° C., the reaction is stopped by the addition of 50 μL BIOMOL GREEN™ reagent. After 30 minutes incubation at room temperature, the readout is performed on the Envision (absorption at 615 nm).
All compounds are tested in duplicate starting from […] followed by a 1/3 serial dilution, 8 points (20 μM-6.67 μM-2.22 μM-740 nM-247 nM-82 nM-27 nM-9 nM) in a final concentration of 1% DMSO. As the positive dose response control compound Vardenafil is used. For the calculation of z′ and PIN values 10 μM Vardenafil is used as positive control (100% inhibition) and 1% DMSO as negative control (0% inhibition).
The following compounds have been or can be prepared according to the synthetic methods described above. For the purpose of Table 7 below, PDE1A activity of each compound, which can be determined using the assay methods described herein, is expressed as follows: […]

Q: For O=C(NCCN1CCOCC1)N1CC(c2nc3c(cnn3C3CCCCC3)c(=O)[nH]2)C1 [Example 61, 3-(1-cyclohexyl-4-oxo-4,5-dihydro-1H-pyrazolo[3,4-d]pyrimidin-6-yl)-N-(2-morpholinoethyl)azetidine-1-carboxamide], which IC50 is on record?
A: Its IC50 is 101 to 500 nM.

Q: How did the IC50 turn out when O=C(NCCc1c[nH]cn1)N1CC(c2nc3c(cnn3C3CCCCC3)c(=O)[nH]2)C1 [Example 62, N-(2-(1H-imidazol-4-yl)ethyl)-3-(1-cyclohexyl-4-oxo-4,5-dihydro-1H-pyrazolo[3,4-d]pyrimidin-6-yl)azetidine-1-carboxamide] was run?
A: The IC50 was 101 to 500 nM.

Q: Which IC50 does the source give for COc1ccc(OC)c(S(=O)(=O)N2CCCC(c3nc4c(cnn4C4CCCCC4)c(=O)[nH]3)C2)c1 (stereo not shown) [Example 63, 1-cyclohexyl-6-(1-(2,5-dimethoxyphenylsulfonyl)piperidin-3-yl)-1H-pyrazolo[3,4-d]pyrimidin-4(5H)-one] here?
A: The IC50 was 101 to 500 nM.

Q: How did the IC50 turn out when Cc1nn(C2CCCCC2)c2nc(C3CCCN(C(=O)c4cccc(NS(C)(=O)=O)c4)C3)[nH]c(=O)c12 (stereo not shown) [Example 64, N-(3-(3-(1-cyclohexyl-3-methyl-4-oxo-4,5-dihydro-1H-pyrazolo[3,4-d]pyrimidin-6-yl)piperidine-1-carbonyl)phenyl)methanesulfonamide] was run?
A: The IC50 was 101 to 500 nM.

Q: COc1ccccc1C(=O)N1CCCC(c2nc3c(cnn3-c3ccccc3)c(=O)[nH]2)C1 (stereo not shown) [Example 65, 6-(1-(2-methoxybenzoyl)piperidin-3-yl)-1-phenyl-1H-pyrazolo[3,4-d]pyrimidin-4(5H)-one] was tested. Which IC50 did it give?
A: Its IC50 is 101 to 500 nM.

Q: Which IC50 does the source give for COC(=O)c1ccc(C(=O)N2CCCC(c3nc4c(c(C)nn4C4CCCCC4)c(=O)[nH]3)C2)cc1 (stereo not shown) [Example 66, methyl 4-(3-(1-cyclohexyl-3-methyl-4-oxo-4,5-dihydro-1H-pyrazolo[3,4-d]pyrimidin-6-yl)piperidine-1-carbonyl)benzoate] here?
A: Its IC50 is 101 to 500 nM.

Q: With CN(C)c1ccc(C(=O)N2CCCC(c3nc4c(cnn4-c4ccccc4)c(=O)[nH]3)C2)cc1 (stereo not shown) [Example 67, 6-(1-(4-(dimethylamino)benzoyl)piperidin-3-yl)-1-phenyl-1H-pyrazolo[3,4-d]pyrimidin-4(5H)-one] as the compound, how does the IC50 read?
A: Its IC50 is 101 to 500 nM.

Q: With COc1cccc(C(=O)N2CCCC(c3nc4c(cnn4-c4ccccc4)c(=O)[nH]3)C2)c1 (stereo not shown) [Example 68, 6-(1-(3-methoxybenzoyl)piperidin-3-yl)-1-phenyl-1H-pyrazolo[3,4-d]pyrimidin-4(5H)-one] as the compound, how does the IC50 read?
A: Its IC50 is 101 to 500 nM.

Q: O=C(NC1CC1)N1CC(c2nc3c(cnn3C3CCCCC3)c(=O)[nH]2)C1 [Example 69, 3-(1-cyclohexyl-4-oxo-4,5-dihydro-1H-pyrazolo[3,4-d]pyrimidin-6-yl)-N-cyclopropylazetidine-1-carboxamide] was tested. Which IC50 did it give?
A: The IC50 was 101 to 500 nM.

Q: With COc1ccc(S(=O)(=O)N2CCCC(c3nc4c(c(C)nn4C4CCC4)c(=O)[nH]3)C2)cc1 (stereo not shown) [Example 70, 1-cyclobutyl-6-(1-(4-methoxyphenylsulfonyl)piperidin-3-yl)-3-methyl-1H-pyrazolo[3,4-d]pyrimidin-4(5H)-one] as the compound, how does the IC50 read?
A: The IC50 was 101 to 500 nM.

Q: How did the IC50 turn out when COc1cccc(C(=O)N2CCCC(c3nc4c(c(C)nn4C4CCCCC4)c(=O)[nH]3)C2)c1 (stereo not shown) [Example 71, 1-cyclohexyl-6-(1-(3-methoxybenzoyl)piperidin-3-yl)-3-methyl-1H-pyrazolo[3,4-d]pyrimidin-4(5H)-one] was run?
A: Its IC50 is 101 to 500 nM.

Q: Which IC50 does the source give for Cc1nn(C2CCCCC2)c2nc(C3CN(C(=O)c4ccccc4)C3)[nH]c(=O)c12 [Example 72, 6-(1-benzoylazetidin-3-yl)-1-cyclohexyl-3-methyl-1H-pyrazolo[3,4-d]pyrimidin-4(5H)-one] here?
A: Its IC50 is 101 to 500 nM.

Q: COC(=O)c1cccc(C(=O)N2CCCC(c3nc4c(c(C)nn4C4CCCCC4)c(=O)[nH]3)C2)c1 (stereo not shown) [Example 73, methyl 3-(3-(1-cyclohexyl-3-methyl-4-oxo-4,5-dihydro-1H-pyrazolo[3,4-d]pyrimidin-6-yl)piperidine-1-carbonyl)benzaate] was tested. Which IC50 did it give?
A: The IC50 was 101 to 500 nM.

Q: Cn1cncc1CNC(=O)N1CC(c2nc3c(cnn3C3CCCCC3)c(=O)[nH]2)C1 [Example 74, 3-(1-cyclohexyl-4-oxo-4,5-dihydro-1H-pyrazolo[3,4-d]pyrimidin-6-yl)-N-((1-methyl-1H-imidazol-5-yl)methyl)azetidine-1-carboxamide] was tested. Which IC50 did it give?
A: The IC50 was 101 to 500 nM.

Q: How did the IC50 turn out when COc1ccc(S(=O)(=O)N2CCCC(c3nc4c(c(C)nn4-c4ccccc4)c(=O)[nH]3)C2)cc1 (stereo not shown) [Example 75, 6-(1-(4-methoxyphenylsulfonyl)piperidin-3-yl)-3-methyl-1-phenyl-1H-pyrazolo[3,4-d]pyrimidin-4(5H)-one] was run?
A: The IC50 was 101 to 500 nM.

Q: How did the IC50 turn out when O=C(c1ccc2c(c1)OCO2)N1CCCC(c2nc3c(cnn3C3CCCCC3)c(=O)[nH]2)C1 (stereo not shown) [Example 76, 6-(1-(benzo[d][1,3]dioxole-5-carbonyl)piperidin-3-yl)-1-cyclohexyl-1H-pyrazolo[3,4-d]pyrimidin-4(5H)-one] was run?
A: The IC50 was 101 to 500 nM.

Q: COc1ccc(C(=O)N2CCCC(c3nc4c(c(C)nn4C4CCCCC4)c(=O)[nH]3)C2)cc1 (stereo not shown) [Example 77, 1-cyclohexyl-6-(1-(4-methoxybenzoyl)piperidin-3-yl)-3-methyl-1H-pyrazolo[3,4-d]pyrimidin-4(5H)-one] was tested. Which IC50 did it give?
A: The IC50 was 101 to 500 nM.

Q: With COc1cccc(C(=O)N2CCCC(c3nc4c(c(C)nn4C4CCC4)c(=O)[nH]3)C2)c1 (stereo not shown) [Example 78, 1-cyclobutyl-6-(1-(3-methoxybenzoyl)piperidin-3-yl)-3-methyl-1H-pyrazolo[3,4-d]pyrimidin-4(5H)-one] as the compound, how does the IC50 read?
A: Its IC50 is 501 to 1000 nM.

Q: With COc1cccc(S(=O)(=O)N2CCCC(c3nc4c(cnn4C4CCCCC4)c(=O)[nH]3)C2)c1 (stereo not shown) [Example 79, 1-cyclohexyl-6-(1-(3-methoxyphenylsulfonyl)piperidin-3-yl)-1H-pyrazolo[3,4-d]pyrimidin-4(5H)-one] as the compound, how does the IC50 read?
A: Its IC50 is 501 to 1000 nM.

Q: Cc1nn(-c2ccccc2)c2nc(C3CCCN(C(=O)c4ccc(N(C)C)cc4)C3)[nH]c(=O)c12 (stereo not shown) [Example 80, 6-(1-(4-(dimethylamino)benzoyl)piperidin-3-yl)-3-methyl-1-phenyl-1H-pyrazolo[3,4-d]pyrimidin-4(5H)-one] was tested. Which IC50 did it give?
A: The IC50 was 501 to 1000 nM.

Q: For COc1cccc(C(=O)N2CCCC(c3nc4c(c(C)nn4-c4ccccc4)c(=O)[nH]3)C2)c1 (stereo not shown) [Example 81, 6-(1-(3-methoxybenzoyl)piperidin-3-yl)-3-methyl-1-phenyl-1H-pyrazolo[3,4-d]pyrimidin-4(5H)-one], which IC50 is on record?
A: The IC50 was 501 to 1000 nM.

Q: Which IC50 does the source give for COc1ccccc1C(=O)N1CCCC(c2nc3c(c(C)nn3C3CCC3)c(=O)[nH]2)C1 (stereo not shown) [Example 82, 1-cyclobutyl-6-(1-(2-methoxybenzoyl)piperidin-3-yl)-3-methyl-1H-pyrazolo[3,4-d]pyrimidin-4(5H)-one] here?
A: Its IC50 is 501 to 1000 nM.

Q: O=C(N1CCCCC1)N1CC(c2nc3c(cnn3C3CCCCC3)c(=O)[nH]2)C1 [Example 83, 1-cyclohexyl-6-(1-(piperidine-1-carbonyl)azetidin-3-yl)-1H-pyrazolo[3,4-d]pyrimidin-4(5H)-one] was tested. Which IC50 did it give?
A: Its IC50 is 501 to 1000 nM.

Q: O=C(NCCN1CCCC1)N1CC(c2nc3c(cnn3C3CCCCC3)c(=O)[nH]2)C1 [Example 84, 3-(1-cyclohexyl-4-oxo-4,5-dihydro-1H-pyrazolo[3,4-d]pyrimidin-6-yl)-N-(2-(pyrrolidin-1-yl)ethyl)azetidine-1-carboxamide] was tested. Which IC50 did it give?
A: The IC50 was 501 to 1000 nM.

Q: For Cc1nn(C2CCCCC2)c2nc(C3CN(C(=O)Cc4ccccc4)C3)[nH]c(=O)c12 [Example 85, 1-cyclohexyl-3-methyl-6-(1-(2-phenylacetoyl)azetidin-3-yl)-1H-pyrazolo[3,4-d]pyrimidin-4(5H)-one], which IC50 is on record?
A: Its IC50 is 501 to 1000 nM.

Q: Cc1ccc(S(=O)(=O)N2CCCC(c3nc4c(c(C)nn4C4CCCCC4)c(=O)[nH]3)C2)cc1 (stereo not shown) [Example 86, 1-cyclohexyl-3-methyl-6-(1-(p-tolylsulfonyl)piperidin-3-yl)-1H-pyrazolo[3,4-d]pyrimidin-4(5H)-one] was tested. Which IC50 did it give?
A: The IC50 was 501 to 1000 nM.

Q: With Cc1ccccc1C(=O)N1CCCC(c2nc3c(c(C)nn3C3CCCCC3)c(=O)[nH]2)C1 (stereo not shown) [Example 87, 1-cyclohexyl-3-methyl-6-(1-(2-methylbenzoyl)piperidin-3-yl)-1H-pyrazolo[3,4-d]pyrimidin-4(5H)-one] as the compound, how does the IC50 read?
A: Its IC50 is 501 to 1000 nM.

Q: For O=C(NCCCN1CCOCC1)N1CC(c2nc3c(cnn3C3CCCCC3)c(=O)[nH]2)C1 [Example 88, 3-(1-cyclohexyl-4-oxo-4,5-dihydro-1H-pyrazolo[3,4-d]pyrimidin-6-yl)-N-(3-morpholinopropyl)azetidine-1-carboxamide], which IC50 is on record?
A: The IC50 was 501 to 1000 nM.

Q: Which IC50 does the source give for Cc1nn(C2CCCCC2)c2nc(C3CCCN(C(=O)c4ccccc4)C3)[nH]c(=O)c12 (stereo not shown) [Example 89, 6-(1-benzoylpiperidin-3-yl)-1-cyclohexyl-3-methyl-1H-pyrazolo[3,4-d]pyrimidin-4(5H)-one] here?
A: Its IC50 is 501 to 1000 nM.

Q: With COc1ccccc1C(=O)N1CCCC(c2nc3c(c(C)nn3-c3ccccc3)c(=O)[nH]2)C1 (stereo not shown) [Example 90, 6-(1-(2-methoxybenzoyl)piperidin-3-yl)-3-methyl-1-phenyl-1H-pyrazolo[3,4-d]pyrimidin-4(5H)-one] as the compound, how does the IC50 read?
A: Its IC50 is 501 to 1000 nM.

Q: Cc1nn(C2CCCCC2)c2nc(C3CCCN(C(=O)c4ccccc4Cl)C3)[nH]c(=O)c12 (stereo not shown) [Example 91, 6-(1-(2-chlorobenzoyl)piperidin-3-yl)-1-cyclohexyl-3-methyl-1H-pyrazolo[3,4-d]pyrimidin-4(5H)-one] was tested. Which IC50 did it give?
A: Its IC50 is 501 to 1000 nM.
